In ChEMBL document CHEMBL1201862, “PubChem BioAssay data set” (2004):
Active and inactive are the calls of the source.

What was measured:
[1] = molecular target: T1, Beta-2 adrenergic receptor (Homo sapiens, UniProt P07550); assay: beta2AR agonists driving receptor internalization, dose response, cell-based, FAP fluorogen, flow cytometry, cherry pick 1 (AID 588763); format: functional
[2] = molecular target: T2, Insulin-degrading enzyme (Homo sapiens, UniProt P14735); assay: Dose Response: Fluorescence polarization-based cell-based high throughput dose response assay for inhibitors of insulin-degrading enzyme (IDE). [Related pubchem assays: 434962 (Primary screen (IDE inhibitors in singlicate)), 449730 (Counterscreen (Cytotoxicity in triplicate)), 435028 (Confirmation (IDE inhibitors in triplicate)), 434984 (Summary …; format: functional
T2 sequence (P14735 whole entry): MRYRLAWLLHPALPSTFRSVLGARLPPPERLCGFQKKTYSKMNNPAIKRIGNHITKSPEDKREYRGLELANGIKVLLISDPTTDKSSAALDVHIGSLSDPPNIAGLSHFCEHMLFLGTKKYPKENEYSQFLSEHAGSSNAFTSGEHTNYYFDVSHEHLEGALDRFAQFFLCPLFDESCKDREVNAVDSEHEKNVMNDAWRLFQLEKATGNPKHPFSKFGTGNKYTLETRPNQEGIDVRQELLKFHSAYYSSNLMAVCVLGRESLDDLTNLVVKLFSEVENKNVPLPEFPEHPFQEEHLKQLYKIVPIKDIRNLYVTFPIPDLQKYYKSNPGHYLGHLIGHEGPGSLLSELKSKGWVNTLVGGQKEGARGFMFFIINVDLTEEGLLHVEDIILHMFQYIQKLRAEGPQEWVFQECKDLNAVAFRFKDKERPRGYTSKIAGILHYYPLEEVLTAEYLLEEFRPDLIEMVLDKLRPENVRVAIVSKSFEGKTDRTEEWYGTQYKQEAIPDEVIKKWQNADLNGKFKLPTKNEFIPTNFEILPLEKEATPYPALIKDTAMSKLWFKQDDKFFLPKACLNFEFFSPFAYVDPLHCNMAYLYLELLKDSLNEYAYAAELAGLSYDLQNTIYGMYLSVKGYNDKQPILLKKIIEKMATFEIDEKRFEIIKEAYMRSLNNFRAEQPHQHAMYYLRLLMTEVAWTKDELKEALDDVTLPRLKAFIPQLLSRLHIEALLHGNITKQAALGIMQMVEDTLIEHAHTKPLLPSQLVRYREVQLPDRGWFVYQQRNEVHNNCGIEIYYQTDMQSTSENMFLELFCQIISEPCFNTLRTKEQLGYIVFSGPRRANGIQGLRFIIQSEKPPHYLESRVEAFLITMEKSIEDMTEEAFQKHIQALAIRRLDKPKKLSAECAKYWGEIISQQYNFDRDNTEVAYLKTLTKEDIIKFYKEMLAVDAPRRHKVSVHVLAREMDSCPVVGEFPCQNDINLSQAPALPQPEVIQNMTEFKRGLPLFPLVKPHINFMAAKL

[3] = Counterscreen for IDE inhibitors: Luminescence-based cell-based high throughput dose response assay to identify compounds that are cytotoxic to HEK cells. [Related pubchem assays: 434962 (Primary screen (IDE inhibitors in singlicate)), 449730 (Counterscreen (Cytotoxicity in triplicate)), 435028 (Confirmation (IDE inhibitors in triplicate)) …; format: functional; conditions: HEK293
[4] = molecular target: T1, Beta-2 adrenergic receptor; assay: Dose response for HTS for Beta-2AR agonists via FAP method from Powderset3.; format: functional
[5] = HeLa cell cytotoxicity, dose response, cytotoxicity control, 24 h, plate reader, dry powder (AID 686928); format: functional, cell-based
[6] = system: A549; assay: A549 cell toxicity, dose response, cytotoxicity control, plate reader, cherry-pick samples (AID 687028); format: functional, cell-based; conditions: Homo sapiens
[7] = Counterscreen for […] of the human trace amine associated receptor 1 (TAAR1): Fluorescence-based cell-based high throughput dose response assay to identify nonselective Ga16 agonists.; format: functional
[8] = Counterscreen for antagonists of the human trace amine associated receptor 1 (hTAAR1): Fluorescence-based cell-based high throughput dose response assay to identify nonselective Ga16 antagonists.; format: functional
[9] = molecular target: T3, Trace amine-associated receptor 1 (Homo sapiens, UniProt Q96RJ0); assay: Counterscreen for antagonists of the human trace amine associated receptor 1 (hTAAR1): Fluorescence-based cell-based high throughput dose response assay to identify TAAR1 Agonists.; format: functional
T3 sequence (Q96RJ0 whole entry): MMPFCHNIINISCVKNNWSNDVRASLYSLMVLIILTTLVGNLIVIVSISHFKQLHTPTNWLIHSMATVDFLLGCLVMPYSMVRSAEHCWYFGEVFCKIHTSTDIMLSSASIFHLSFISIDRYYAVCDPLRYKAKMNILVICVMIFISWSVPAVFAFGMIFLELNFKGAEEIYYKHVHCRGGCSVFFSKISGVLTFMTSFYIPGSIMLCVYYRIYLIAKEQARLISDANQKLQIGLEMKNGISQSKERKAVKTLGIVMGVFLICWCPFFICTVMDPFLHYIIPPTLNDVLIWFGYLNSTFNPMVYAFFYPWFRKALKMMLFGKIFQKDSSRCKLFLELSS

[10] = molecular target: T3, Trace amine-associated receptor 1; assay: Fluorescence-based cell-based high throughput dose response assay to identify antagonists of the human trace amine associated receptor 1 (TAAR1).; format: functional
[11] = molecular target: Kallikrein-7 (Homo sapiens, UniProt P49862); assay: Fluorescence Intensity-based biochemical primary high throughput dose response assay to identify activators of kallikrein-7 (K7) zymogen.
[12] = EDANS-DABCYL fluorescence interference, concentration series, dose response, artefact control for kallikrein-7 zymogen activator project, biochemical, fluorescence intensity, triplicate (AID 720493)

T1 sequence (P07550 whole entry): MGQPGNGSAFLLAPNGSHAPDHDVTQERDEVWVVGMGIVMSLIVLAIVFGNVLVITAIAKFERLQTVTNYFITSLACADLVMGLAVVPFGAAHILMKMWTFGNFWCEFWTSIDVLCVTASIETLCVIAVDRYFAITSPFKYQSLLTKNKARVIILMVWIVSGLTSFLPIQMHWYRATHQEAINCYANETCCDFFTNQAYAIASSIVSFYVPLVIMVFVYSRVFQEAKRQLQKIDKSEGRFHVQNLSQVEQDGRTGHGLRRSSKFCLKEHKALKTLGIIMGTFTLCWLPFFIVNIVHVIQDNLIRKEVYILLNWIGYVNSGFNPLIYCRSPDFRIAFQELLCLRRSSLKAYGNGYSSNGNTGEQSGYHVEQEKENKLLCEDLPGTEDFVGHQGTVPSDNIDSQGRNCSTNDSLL
Chain of Kallikrein-7 (P49862 whole entry): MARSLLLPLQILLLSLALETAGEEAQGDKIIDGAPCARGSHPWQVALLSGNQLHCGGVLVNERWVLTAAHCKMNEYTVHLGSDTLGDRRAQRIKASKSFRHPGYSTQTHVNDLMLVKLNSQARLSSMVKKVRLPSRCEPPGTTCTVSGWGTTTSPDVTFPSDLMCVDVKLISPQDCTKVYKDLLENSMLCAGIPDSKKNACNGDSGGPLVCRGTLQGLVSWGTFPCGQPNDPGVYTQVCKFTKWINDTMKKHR

## Clc1cccc(-c2nnc(SCc3nc4ccccc4[nH]3)n2Cc2ccco2)c1
[1]
  EC50: 10.1 µM (inactive)
[2]
  IC50: 2.57 µM (active)
[3]
  IC50: 22.4 µM (not active)
[4]
  EC50: 8.09 µM (active)

## Cc1ccc(-n2cnc(=O)c3ccccc32)cc1Cl
[5]
  AC50: > 160 µM (inactive)

## C[C@H](CO)N1C[C@H](C)[C@H](CN(C)C(=O)Nc2ccc(C(F)(F)F)cc2)OCCCC[C@H](C)Oc2ccc(NS(=O)(=O)c3ccc(F)cc3)cc2C1=O
[6]
  AC50: 33.6 µM (active)

## Cc1ccc(CSCC(=O)Nc2cc(S(=O)(=O)N3CCOCC3)ccc2OCC(F)(F)F)cc1
[7]
  EC50: > 29.9 µM (inactive)
[8]
  IC50: > 29.9 µM (inactive)
[9]
  EC50: > 29.9 µM (inactive)
[10]
  IC50: 1.25 µM (active)

## COc1ccc(-c2coc3c(CN4CCCCC4C)c(O)ccc3c2=O)cc1 (configuration not stated)
[11]
  EC50: > 2.58 µM (active)
[12]
  EC50: > 2.58 µM (active)
